pIC50: −log10 of the molar value. ≈ marks a conversion by molar mass, not a printed value. Like-named read-outs stand apart in the source and are kept apart here. Peptide text beside a SMILES is read from it.
How the values were obtained:
[1] = tested on: human red blood cell (hRBC); assay: Human red blood cell (hRBC) hemolytic assay; assay type: cell-based
Protocol: To determine if the purified, Mabs inhibitory peptides were toxic, human red blood cell (hRBC) hemolytic assays were performed. Peptides (at 1×, 2×, and 4× their respective Mabs 19977S MICs) were added to 4% hRBC in saline and statically incubated for 1 h or 18 h at 37° C. […] Following incubation, the peptide-hRBC mixtures and the 1% Triton X-100 positive controls were centrifuged for 1 min at 1,000×g to pellet the intact hRBC. The supernatant for each experimental mixture and control was removed, and OD475 measurements were recorded to determine the percentage of lysed hRBC. The percentage of hemolytic activity was normalized by comparing the supernatant absorbance of all conditions tested to an equivalent number of hRBC lysed with 1% Triton X-100 (Eq. 1) (50).

[2] = tested on: Mabs 19977R (rough morphotype); assay: Growth inhibition screen with unpurified peptides in M7H9, MHB, CAMHB; assay type: cell-based, Mycobacterium abscessus; details: unpurified peptide 100 μM
Protocol: (§1) Mabs ATCC 19977 smooth morphotype (Mabs 19977S) cells were cultured at 37° C. in Middlebrook 7H9 supplemented with albumin, dextrose, and catalase (ADC) (10%), Tween 80 (0.05%), and glycerol (0.2%) (herein referred to as M7H9). Mabs 19977S was exposed to clarithromycin (8 μg/ml) in M7H9 for 24 h at 37° C., subjected to serial dilutions and plated on Middlebrook 7H10 agar supplemented with oleic acid, albumin, dextrose, and catalase (OADC) (herein referred to as M7H10). After 5 d incubation at 37° C., a single, isolated colony displaying a rough morphotype (Mabs 19977R) was detected, grown, and stored at −70° C. Mabs 19977S and Mabs 19977R were grown for approximately 32 h at 37° C., diluted 1:100 in fresh, pre-warmed M7H9, and grown for an additional 14 h until the cultures reached early-to-mid-logarithmic phase (OD600=0.2-0.3).
(§2) Bacteria grown in M7H9, MHB, and cation-adjusted MHB (CAMHB) were used to identify unpurified peptides with inhibitory activity against Mabs 19977S and Mabs 19977R. Peptides (50-65% purity) were synthesized by Sigma Aldrich (St. Louis, Mo.) PEPscreen Custom Peptide Libraries. Mabs ATCC 19977S and ATCC 19977R mid-logarithmic phase cultures were centrifuged (3,715×g) for 2 min, washed in pre-warmed M7H9, re-suspended in M7H9, MHB, or CAMHB, and diluted to 10^6 CFU/ml. In a 96-well polystyrene microtiter plate, media (M7H9, MHB, or CAMHB), unpurified peptides (100 μM or 10 μM), ethylenediaminetetraacetic acid (EDTA) (100 μM), and cells (Mabs 19977S or Mabs 19977R) (10^5 CFU/ml) were added. EDTA was added to determine if metal ion chelation would alter peptide activity. Clarithromycin (4 μg/ml) was used as an antibiotic positive control. The 96-well microtiter plates were statically incubated at 37° C. for 72 h. The OD600 was measured every 24 h using a SpectraMax M2 microplate reader (Molecular Devices, San Jose, Calif., USA). Peptides that reduced Mabs growth by ≥50%, when compared to the growth control OD600, were considered active.
(§3) In culture medium with cation supplementation (CAMHB), ASU2060 (100 μM) had activity against both morphotypes when EDTA was added (FIG. 2F). […] There were no peptides with inhibitory activity in CAMHB without EDTA (FIG. 2E).

[3] = tested on: Mabs 19977S (Mabs ATCC 19977 smooth morphotype); assay: as above; assay type: cell-based, Mycobacterium abscessus; details: unpurified peptide 100 μM
Protocol: as §1, §2, §3

[4] = tested on: Mabs 19977R; details: 96 h
Protocol: (§4) In order to determine effects on Mabs viability, microdilution antimicrobial assays were performed in MHB.

[5] = tested on: Mabs 19977S; details: purified peptide, MHB with EDTA (100 μM), 96 h, 37° C.
Protocol: as §4

[6] = tested on: E. coli clinical isolates
From the text: (approved by Mayo Clinic Biospecimen Subcommittee BIO00015462).

[7] = tested on: E. coli ATCC 25922; assay type: cell-based, Escherichia coli; details: ATCC 25922, 22 h
Protocol: Samples were serially diluted in MHB to ˜10^5 CFU/ml and added to a 96-well polystyrene plate prepared with ASU2060 (128-4 μM). After incubation for 22 h at 37° C., the OD600 was measured using a SpectraMax M2 microplate reader (Molecular Devices, San Jose, Calif., USA). Values were normalized to the medium blank (MHB) and E. coli (ATCC 25922) treated with nitrofurantoin at 64 μM.

[8] = purified peptide, MHB with EDTA (100 μM), 37° C.

## Triton X-100 [reference compound]
[1]; Triton X-100 1%, 4% hRBC
  hRBC lysis by positive control: complete hRBC lysis

## CC(C)C[C@@H](NC(=O)[C@@H](C)NC(=O)[C@@H](CCCCN)NC(=O)[C@@H](CCCNC(=N)N)NC(=O)[C@H](Cc1ccccc1)NC(=O)[C@H](CCC(N)=O)NC(=O)[C@H](CC(N)=O)NC(=O)[C@@H](NC(=O)[C@@H](CCCCN)NC(=O)[C@@H](CCCNC(=N)N)NC(=O)[C@H](C)NC(=O)[C@@H](CCCCN)NC(=O)[C@H](CO)NC(=O)[C@@H](CC(C)C)NC(=O)CNC(=O)[C@H](Cc1ccc(O)cc1)NC(=O)[C@H](N)CCCNC(=N)N)C(C)C)C(N)=O [ASU2009, rYGlSkArkVNQFrkal] (HELM PEPTIDE1{[dR].Y.G.[dL].S.[dK].A.[dR].[dK].V.N.Q.F.[dR].[dK].[dA].[dL].[am]}$$$$V2.0)
[2]; M7H9, with EDTA (100 μM)
  activity (growth reduced by ≥50% vs growth control OD600): exhibited activity
[2]; MHB, with EDTA
  activity (growth reduced by ≥50% vs growth control OD600): maintained activity
[3]; M7H9, with EDTA (100 μM)
  activity (growth reduced by ≥50% vs growth control OD600): exhibited activity
[3]; MHB, with EDTA
  activity (growth reduced by ≥50% vs growth control OD600): maintained activity

## CC(C)[C@H](NC(=O)[C@@H](CCCCN)NC(=O)[C@H](C)NC(=O)[C@@H](C)NC(=O)[C@@H](CCCCN)NC(=O)[C@H](CO)NC(=O)[C@@H](CCCNC(=N)N)NC(=O)CNC(=O)[C@H](CC(N)=O)NC(=O)[C@H](Cc1ccccc1)NC(=O)[C@@H](N)CCC(N)=O)C(=O)N[C@@H](CC(N)=O)C(=O)N[C@@H](Cc1ccccc1)C(=O)N[C@H](Cc1c[nH]c2ccccc12)C(=O)N[C@H](CCCNC(=N)N)C(=O)N[C@H](CCCCN)C(=O)N[C@H](C)C(=O)O [ASU2001, QFNGrSkaAkVNFwrka] (HELM PEPTIDE1{Q.F.N.G.[dR].S.[dK].[dA].A.[dK].V.N.F.[dW].[dR].[dK].[dA]}$$$$V2.0)
[2]; M7H9, with EDTA (100 μM)
  activity (growth reduced by ≥50% vs growth control OD600): exhibited activity
[2]; M7H9, without EDTA
  activity (growth reduced by ≥50% vs growth control OD600): exhibited activity
[2]; MHB, with EDTA
  activity (growth reduced by ≥50% vs growth control OD600): maintained activity
[3]; M7H9, with EDTA (100 μM)
  activity (growth reduced by ≥50% vs growth control OD600): exhibited activity
[3]; MHB, with EDTA
  activity (growth reduced by ≥50% vs growth control OD600): maintained activity

## CC(C)C[C@@H](NC(=O)CNC(=O)[C@@H](Cc1c[nH]c2ccccc12)NC(=O)[C@@H](CCCNC(=N)N)NC(=O)[C@@H](N)CCC(N)=O)C(=O)N[C@@H](CO)C(=O)N[C@H](CC(C)C)C(=O)N[C@@H](C)C(=O)N1CCC[C@H]1C(=O)N[C@@H](Cc1ccc(O)cc1)C(=O)N[C@H](CCCCN)C(=O)N[C@@H](CC(N)=O)C(=O)N[C@@H](Cc1ccccc1)C(=O)N[C@H](CCCNC(=N)N)C(=O)N[C@H](CCCNC(=N)N)C(=O)N[C@H](CC(C)C)C(=O)N[C@@H](CO)C(N)=O [ASU2056, QrwGlSlAPYkNFrrlS] (HELM PEPTIDE1{Q.[dR].[dW].G.[dL].S.[dL].A.P.Y.[dK].N.F.[dR].[dR].[dL].S.[am]}$$$$V2.0; N-terminus and C-terminus assumed)
[4]; [8]
  pIC50: 4.35
[5]
  MIC: 32 µM (≈ 66.9 µg/mL)
[1]
  relative hRBC toxicity among the six peptides: the least toxicity

## CC(C)C[C@@H](NC(=O)CNC(=O)[C@H](CO)NC(=O)[C@@H](CCCCN)NC(=O)[C@@H](CCCNC(=N)N)NC(=O)[C@@H](Cc1c[nH]c2ccccc12)NC(=O)[C@@H](CCCNC(=N)N)NC(=O)[C@H](Cc1ccccc1)NC(=O)[C@H](CC(N)=O)NC(=O)[C@H](Cc1ccc(O)cc1)NC(=O)[C@@H](CCCNC(=N)N)NC(=O)[C@H](C)NC(=O)[C@H](CO)NC(=O)[C@@H](Cc1c[nH]c2ccccc12)NC(=O)[C@@H](CCCNC(=N)N)NC(=O)CNC(=O)[C@@H](N)C(C)C)C(N)=O [ASU2060, VGrwSArYNFrwrkSGl] (HELM PEPTIDE1{V.G.[dR].[dW].S.A.[dR].Y.N.F.[dR].[dW].[dR].[dK].S.G.[dL].[am]}$$$$V2.0; N-terminus and C-terminus assumed)
[4]; [8]
  pIC50: 4.89
[5]
  MIC: 8 µM (≈ 17.1 µg/mL)
[6]; E. coli clinical isolate 23
  ASU2060 MIC: 8 µM
[6]; E. coli clinical isolate 36
  ASU2060 MIC: 8 µM
[6]; E. coli clinical isolate 45
  ASU2060 MIC: 8 µM
[6]; E. coli clinical isolate 47
  ASU2060 MIC: 8 µM
[6]; E. coli clinical isolate 97
  ASU2060 MIC: 8 µM
[6]; E. coli clinical isolate 98
  ASU2060 MIC: 8 µM
[7]
  MIC: 4 µM (≈ 8.55 µg/mL)

## CC(C)C[C@@H](NC(=O)[C@@H](C)NC(=O)CNC(=O)[C@@H](CC(C)C)NC(=O)[C@@H](CCCCN)NC(=O)[C@@H](CCCNC(=N)N)NC(=O)[C@@H](CCCNC(=N)N)NC(=O)[C@H](CC(N)=O)NC(=O)[C@H](Cc1ccc(O)cc1)NC(=O)[C@@H](CCCNC(=N)N)NC(=O)[C@H](C)NC(=O)[C@H](CO)NC(=O)[C@@H](CCCNC(=N)N)NC(=O)CNC(=O)[C@@H](N)Cc1ccc(O)cc1)C(=O)N[C@@H](CO)C(=O)NCC(=O)O [ASU2059, YGrSArYNrrklGalSG] (HELM PEPTIDE1{Y.G.[dR].S.A.[dR].Y.N.[dR].[dR].[dK].[dL].G.[dA].[dL].S.G}$$$$V2.0)
[2]; M7H9, with EDTA (100 μM)
  activity (growth reduced by ≥50% vs growth control OD600): exhibited activity
[2]; MHB, with EDTA
  activity (growth reduced by ≥50% vs growth control OD600): maintained activity
[3]; M7H9, with EDTA (100 μM)
  activity (growth reduced by ≥50% vs growth control OD600): exhibited activity
[3]; MHB, with EDTA
  activity (growth reduced by ≥50% vs growth control OD600): maintained activity

## CC(C)C[C@@H](NC(=O)[C@@H](C)NC(=O)[C@H](CO)NC(=O)[C@@H](CCCCN)NC(=O)[C@@H](CCCNC(=N)N)NC(=O)[C@@H](CCCNC(=N)N)NC(=O)[C@H](Cc1ccccc1)NC(=O)[C@@H](CC(C)C)NC(=O)[C@H](CC(N)=O)NC(=O)[C@H](Cc1c[nH]cn1)NC(=O)[C@@H]1CCCN1C(=O)[C@H](C)NC(=O)[C@H](CO)NC(=O)[C@@H]1CCCN1C(=O)CNC(=O)[C@@H](NC(=O)[C@H](N)CCCNC(=N)N)C(C)C)C(N)=O [ASU2019] (HELM PEPTIDE1{[dR].V.G.P.S.A.P.H.N.[dL].F.[dR].[dR].[dK].S.[dA].[dL].[am]}$$$$V2.0; N-terminus and C-terminus assumed)
[4]
  pIC50: 4.09 to 4.12
[5]
  MIC: 256 µM (≈ 488 µg/mL)
[1]
  relative hRBC toxicity among the six peptides: the most toxicity

Source: patent US11752195B2, “Compositions and methods of use of synthetic peptides with Mycobacterium abscessus inhibitory activity” (priority 2021, dated 2023)
